# Laboratory results taken from article PMC12082625, “Redox-State-Dependent Structural Changes within a Prokaryotic 6–4 Photolyase” (Journal of the American Chemical Society, 2025).
# Tests used:
# Type in all cases: binding
# Cc(6–4)PL [1] = target: T1, Cc(6–4)PL (Caulobacter vibrioides, UniProt Q9AAF5); test: XFEL serial femtosecond crystallography; details: dark-adapted oxidized state, room temperature; N-terminal antenna site; co-purified cofactor
# T1 construct: gene CC_0646; pET28-based, nickel-NTA purified (His-tagged by implication) from E. coli BL21(DE3); model spans M1-S508; contains FAD, DLZ and [4Fe-4S] cluster
# T1 sequence (Q9AAF5 1-509): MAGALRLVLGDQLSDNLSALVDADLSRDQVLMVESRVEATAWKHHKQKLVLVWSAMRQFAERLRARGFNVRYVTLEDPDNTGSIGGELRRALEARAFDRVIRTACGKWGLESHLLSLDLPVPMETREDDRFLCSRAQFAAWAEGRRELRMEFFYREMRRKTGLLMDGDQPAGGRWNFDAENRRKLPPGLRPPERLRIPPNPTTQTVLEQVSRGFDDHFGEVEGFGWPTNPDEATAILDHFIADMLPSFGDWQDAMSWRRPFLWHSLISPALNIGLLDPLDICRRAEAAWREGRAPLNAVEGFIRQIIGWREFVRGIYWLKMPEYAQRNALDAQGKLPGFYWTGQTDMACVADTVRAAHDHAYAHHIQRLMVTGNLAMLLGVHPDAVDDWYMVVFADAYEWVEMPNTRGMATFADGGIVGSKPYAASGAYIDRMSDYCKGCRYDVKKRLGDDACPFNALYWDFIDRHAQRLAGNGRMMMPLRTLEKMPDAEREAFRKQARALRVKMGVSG
# Cc(6–4)PL [2] = target: T2, Cc(6–4)PL (Caulobacter vibrioides, UniProt Q9AAF5, K48A); test: X-ray crystal structure (synchrotron, […] Å); UV/vis spectroscopy; details: antenna site; occupancy in crystal, not an affinity
# T2 construct: gene CC_0646; pET28-based, nickel-NTA purified (His-tagged by implication) from E. coli BL21(DE3); model spans M1-S508; contains FAD, DLZ and [4Fe-4S] cluster
# T2 sequence (Q9AAF5 entry or part of it K48A): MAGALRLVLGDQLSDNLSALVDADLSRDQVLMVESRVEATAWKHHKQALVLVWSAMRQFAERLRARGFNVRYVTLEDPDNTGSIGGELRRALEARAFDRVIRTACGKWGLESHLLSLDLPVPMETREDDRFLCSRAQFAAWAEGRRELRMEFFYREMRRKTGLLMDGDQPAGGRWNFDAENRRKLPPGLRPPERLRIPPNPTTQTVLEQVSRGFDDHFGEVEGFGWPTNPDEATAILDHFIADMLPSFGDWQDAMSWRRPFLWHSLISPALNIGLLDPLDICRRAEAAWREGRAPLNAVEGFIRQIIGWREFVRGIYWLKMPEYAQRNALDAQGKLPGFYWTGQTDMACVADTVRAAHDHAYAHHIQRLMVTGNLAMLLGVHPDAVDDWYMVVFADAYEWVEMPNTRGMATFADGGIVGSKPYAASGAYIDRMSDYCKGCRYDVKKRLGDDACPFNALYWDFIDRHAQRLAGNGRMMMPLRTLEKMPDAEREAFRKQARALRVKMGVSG
# Cc(6–4)PL [3] = target: T1, Cc(6–4)PL; test: XFEL serial femtosecond crystallography; in crystallo UV-vis; details: photoreduced in crystals, 50 mM DTT, anaerobic, 30 min white light and blue LED; catalytic FAD site
# Cc(6–4)PL [4] = target: T1, Cc(6–4)PL; test: XFEL serial femtosecond crystallography and synchrotron crystal structures; details: dark-adapted oxidized state, room temperature; catalytic FAD site; co-purified cofactor
structure (smiles),measurement,setting,value
Cc1nc2c(=O)[nH]c(=O)nc-2n(C[C@H](O)[C@H](O)[C@H](O)CO)c1C [DLZ],XFEL serial femtosecond crystallography,Cc(6–4)PL [1],Structural analysis reveals an intricate DLZ binding pocket with interactions involving several key residues
same,occupancy,Cc(6–4)PL [2],~ 50%
Cc1cc2c(cc1C)N(C[C@H](O)[C@H](O)[C@H](O)COP(=O)(O)OP(=O)(O)OC[C@H]1O[C@@H](n3cnc4c(N)ncnc43)[C@H](O)[C@@H]1O)c1[nH]c(=O)[nH]c(=O)c1N2 [FADH–],XFEL serial femtosecond crystallography; in crystallo UV-vis,Cc(6–4)PL [3],structural changes occurred in the FAD binding site compared to the FADox state
Cc1cc2nc3c(=O)[nH]c(=O)nc-3n(C[C@H](O)[C@H](O)[C@H](O)COP(=O)(O)OP(=O)(O)OC[C@H]3O[C@@H](n4cnc5c(N)ncnc54)[C@H](O)[C@@H]3O)c2cc1C [FADox],XFEL serial femtosecond crystallography and synchrotron crystal structures,Cc(6–4)PL [4],the damage-free structures reveal FAD’s binding arrangement with its isoalloxazine moiety engaging key amino acid residues
